Experimental findings from patent publication US5990173A, “2,3,5-trimethyl-4-hydroxyanilide derivatives, preparation thereof and therapeutical use thereof” (Pierre Fabre Medicament, priority 1995, dated 1999) are described below.

Like-named read-outs stand apart in the source and are kept apart here. Bounds are passed on as bounds.

Assay [1] has as its system hepatic microsomal lipids (rat liver microsomes). The experiment in a line: Antioxidant activity: chemical peroxidation of hepatic microsomal lipids (TBARS). It is filed as biochemical. The conditions noted are these: Fe3+/ADP/dihydroxyfumaric acid. The source says: a) Chemical peroxidation.
In the presence of Fe^3+ and ADP, dihydroxyfumaric acid undergoes an autoxidation which generates oxygen free radicals. The latter bring about the peroxidation of hepatic microsomal lipids.

Assay [2] has as its target ACAT (acyl-CoA:cholesterol O-acyl-transferase enzyme). Put plainly: Inhibition of ACAT in vitro. The conditions noted are these: technique of H. Chautan et al. It is filed as biochemical, rat. The source says:
The compounds were studied for their inhibitory effect on ACAT and hypocholesterolemic effect in rats, on the one hand, and for their antioxidant effect, on the other hand.

The next assay deals with plasma cholesterol. The experiment in a line: Hypocholesterolemic activity in rats on a hypercholesterolemic diet. The class given is in vivo, rat. To be noted: male rats, 4 days, Altromin C 1061 hypercholesterolemic diet, dose which reduces plasma cholesterol by half relative to controls. The protocol: 2) Hypocholesterolemic activity
Male rates (160-180 g) are subjected for 4 days to an Altromin C 1061 hypercholesterolemic diet, and concomitantly treated orally with compounds suspended in a 2% solution of Tween 80 in distilled water.
On day 5, the animals, which have not fasted, are anesthethized with ethyl ether and exsanguinated by drawing blood at the abdominal aorta onto EDTA. The blood is immediately centrifuged and the plasma stored at 4° C.
Plasma cholesterol is then assayed by the CHOD-PAP method (Boehringer-Mannheim Ref. 237574). The median effective dose (ED50) corresponds to the dose which reduces the plasma cholesterol concentration by half relative to control animals.

Another assay has as its system Human LDL. Put plainly: Antioxidant activity: oxidation of LDL by CuSO4 (TBARS). It is filed as biochemical. To be noted: human LDL oxidized with 10 μM CuSO4, 6 hours, TBARS at 532 nm.
Where [3] appears, read: Rattus norvegicus, po, 96 h, read-out: ED50.

`CCCCCCCCCCCCSC(CC)C(=O)Nc1cc(C)c(O)c(C)c1C` (stereo not drawn) [Compound 3, 2',3',5'-Trimethyl-4'-hydroxy-α-(dodecylthio)butyranilide]: the IC50 in assay [1] is over 10 µM; in assay [2], 0.31 µM. Besides, the ED50 with plasma cholesterol (setting [3]) turned out to be 4 mg/kg.

In turn, `CCCCCCCCCCCCSC(C(=O)Nc1cc(C)c(O)c(C)c1C)c1ccccc1` (single isomer, unassigned; (+)) [Compound 16, (+)-2',3',5'-Trimethyl-4'-hydroxy-α-dodecylthio-α-phenylacetanilide] returned a half-inhibitory concentration (IC50) in the assay on Human LDL of 4 µM. Besides, in the assay on plasma cholesterol (oral), the ED50 was found to be 0.15 mg/kg.

`CCCCCCCCCCCCSC(C(=O)Nc1cc(C)c(O)c(C)c1C)c1ccccc1` (stereo not drawn) [Compound 7, 2',3',5'-Trimethyl-4'-hydroxy-α-dodecylthio-α-phenylacetanilide]: the IC50 in the assay on Human LDL came out at 13 µM; in assay [1], 0.6 µM. The ED50 in the assay on plasma cholesterol (setting [3]) worked out at 0.2 mg/kg.

Regarding `CCCCCCCCCCC(C)(C)C(=O)Nc1c(OC)cc(OC)cc1OC` [CI 976, reference compound], the IC50 in the assay with Human LDL is 100 µM; in assay [1], over 10 µM. The ED50 with plasma cholesterol (setting [3]) is 8.3 mg/kg.

Take `Cc1cc(NC(=O)C(C)(C)Sc2ccc(Cl)cc2)c(C)c(C)c1O` [Compound 9, 2',3',5'-Trimethyl-4'-hydroxy-α-(p-chlorophenylthio)isobutyranilide]: half-maximal inhibition in assay [2] (IC50) was put at 1.12 µM.

For the molecule `CCCCCCCCCCCCSC(C(=O)Nc1cc(C)c(O)c(C)c1C)c1ccc(OC)cc1` (stereo not drawn) [Compound 14, 2',3',5'-Trimethyl-4-hydroxy-α-dodecylthio-α-(p-methoxyphenyl)acetanilide], the ED50 in the assay on plasma cholesterol (setting [3]) worked out at 1 mg/kg.

`CCCCCCCCCCCCSC(CCC)C(=O)Nc1cc(C)c(O)c(C)c1C` (stereo not drawn) [Compound 6, 2',3',5'-Trimethyl-4'-hydroxy-α-(dodecylthio)valeranilide]: the IC50 came to 0.3 µM in assay [1] and 0.11 µM in assay [2]. Besides, the ED50 in the assay with plasma cholesterol (setting [3]) was 1 mg/kg.

With `CCCCCCCN(CCCCCSc1nc(-c2ccccc2)c(-c2ccccc2)[nH]1)C(=O)Nc1ccc(F)cc1F` [DUP 128, reference compound], the IC50 in the assay on Human LDL is 30 µM; in assay [1], over 10 µM. Further, in the assay with plasma cholesterol (setting [3]), the ED50 amounted to 1.1 mg/kg.

As to `CCCCCCCCCCCCSC(C(=O)Nc1cc(C)c(O)c(C)c1C)C(C)C` (stereo not drawn) [Compound 5, 2',3',5'-Trimethyl-4'-hydroxy-α-(dodecylthio)isovaleranilide], the IC50 in assay [1] amounted to 5 µM; in assay [2], 0.63 µM. Further, in the assay on plasma cholesterol (setting [3]), the ED50 was determined as 1 mg/kg.

For `Cc1cc(NC(=O)C(C)(C)Oc2ccc(Cl)cc2)c(C)c(C)c1O` [Compound 11, 2',3',5'-Trimethyl-4'-hydroxy-α-(p-chlorophenoxy)isobutyranilide], in assay [2], the midpoint of inhibition, the IC50, lay at 1.1 µM.

`CCCCCCCCCCCCSCC(=O)Nc1cc(C)c(O)c(C)c1C` [Compound 2, 2',3',5'-Trimethyl-4'-hydroxy-α-(dodecylthio)acetanilide]: the IC50 in assay [1] came to 5 µM; in assay [2] it was 0.3 µM. Also, the ED50 in the assay on plasma cholesterol (setting [3]) was over 10 mg/kg.

The molecule `CCCCCCCCCCCC[S+]([O-])C(C)(C)C(=O)Nc1cc(C)c(O)c(C)c1C` (stereo not drawn) [Compound 12, 2',3',5'-Trimethyl-4'-hydroxy-α-(dodecylsulfinyl)bobutyranilide] returned an IC50 with Human LDL of 3 µM.

For Vitamin E [reference compound], the IC50 with Human LDL was found to be 10 µM; in assay [1], 2.3 µM.

As for `CCCCCCCCCCCCSC(CCCC)C(=O)Nc1cc(C)c(O)c(C)c1C` (stereo not drawn) [Compound 4, 2',3',5'-Trimethyl-4'-hydroxy-α-(dodecylthio)hexananilide], the IC50 was 10 µM with Human LDL, 0.5 µM in assay [1] and 0.16 µM in assay [2]. Besides, the ED50 in the assay on plasma cholesterol (setting [3]) is 0.5 mg/kg.

Take `CCCCCCCCCCCCSC(C)(C)C(=O)Nc1cc(C)c(O)c(C)c1C` [Compound 8, 2',3',5'-Trimethyl-4'-hydroxy-α-(dodecylthio)isobutyranilide]: the IC50 in assay [1] was found to be 3 µM; in assay [2], 0.19 µM. In the assay on plasma cholesterol (setting [3]), the ED50 stood at 10 mg/kg.

The term IC50 denotes the concentration at which inhibition is half-maximal. Read a high IC50 as lower potency.
